Experimental data: patent publication US11608320B2, “Oxazolidinone hydroxamic acid derivatives” (KUWAIT UNIVERSITY, priority 2020, dated 2023)

Tests used:
[1] = target: T1, recombinant human 5-LO enzyme (Homo sapiens, UniProt P09917); test: Direct 5-LO inhibitory activity in a cell-free assay (H2DCF-DA fluorescence); type: biochemical; conditions: cell-free, recombinant human 5-LO; read-out: Inhibitory Activity IC50, Human recomb. 5-LO
T1 sequence (P09917 1-674): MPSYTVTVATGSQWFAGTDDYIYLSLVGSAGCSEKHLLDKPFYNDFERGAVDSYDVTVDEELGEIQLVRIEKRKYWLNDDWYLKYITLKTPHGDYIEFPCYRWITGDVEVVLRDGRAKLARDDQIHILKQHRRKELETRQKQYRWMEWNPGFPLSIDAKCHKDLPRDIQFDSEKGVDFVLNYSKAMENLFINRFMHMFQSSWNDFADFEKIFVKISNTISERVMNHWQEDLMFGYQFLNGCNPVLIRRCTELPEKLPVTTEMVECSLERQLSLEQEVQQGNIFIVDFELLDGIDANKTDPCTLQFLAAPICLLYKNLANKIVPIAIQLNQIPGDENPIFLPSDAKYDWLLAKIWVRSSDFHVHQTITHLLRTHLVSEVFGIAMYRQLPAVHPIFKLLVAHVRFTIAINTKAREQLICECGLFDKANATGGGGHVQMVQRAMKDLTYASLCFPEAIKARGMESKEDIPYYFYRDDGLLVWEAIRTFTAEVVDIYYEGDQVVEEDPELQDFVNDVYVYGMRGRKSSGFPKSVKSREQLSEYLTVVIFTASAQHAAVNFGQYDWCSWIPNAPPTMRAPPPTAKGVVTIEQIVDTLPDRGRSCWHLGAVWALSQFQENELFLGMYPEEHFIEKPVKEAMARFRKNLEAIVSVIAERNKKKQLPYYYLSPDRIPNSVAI
Description: H2DCF-DA (60 μM) was first pre-cleaved by incubating with 450 mU/ml recombinant human 5-LO enzyme in Tris buffer (containing 50 mM Tris, pH=7.5, 2 mM EDTA, 2 mM CaCl2), 1 mM dithiothreitol (DTT) and 0.6 U/ml glutathione peroxidase) for 10 min at room temperature. […] After 10 min incubation at room temperature, the reaction was started with the addition of 50 μl of the substrate solution (Tris buffer containing 20 μM ATP and 20 μM arachidonic acid). After a further 20 min, the reaction was terminated with 100 μl acetonitrile. Fluorescence was read at 500 nm excitation and 520 emission, with Novostar® microplate reader (BMG Labtech, Offenburg, Germany). Appropriate controls, including 100 μM nordihydroguaiaretic acid (NDGA), were included to isolate only the 5-LO-attributable, NDGA-inhibitable RFU values.

[2] = test system: LTC4 release from IgE/antigen-activated mouse mast cells (BMMC); test: Inhibition of LTC4 release in allergen/IgE-activated bone marrow-derived mouse mast cells; type: cell-based; conditions: BMMC, anti-DNP IgE sensitized, DNP-BSA 30 ng/ml, 30 min
Excerpt: (§1) Inhibition of LTC4 release and degranulation in allergen/IgE-activated bone marrow-derived mouse mast cells (BMMC): Bone marrow-derived mast cells (BMMC) were generated from pathogen-free 5-7 week old male Balb/c mice according to the method of Davis et al., [2004] (Davis, B. J., et al., (2004), Journal of Immunology, 173: 6914-6920). Essentially, bone marrow cells were obtained by flushing of the femoral bone marrow and cultured in RPMI 1640 medium supplemented with 10% FBS, 100 U/ml penicillin, and 100 μg/ml streptomycin, 25 mM HEPES, 1.0 mM sodium pyruvate, 0.1 mM nonessential amino acids, 0.0035% 2-mercaptoethanol, and 30 ng/ml mouse recombinant IL-3, with culture medium replaced every two days. Cells were used after 4-8 weeks of culture, by which time at least 97% of the cells would have differentiated into mast cells.
(§2) The generated BMMCs were seeded at 5×10^4 cells/well in a 96-well flat-bottom culture plate and passively sensitized overnight with 0.5 μg/ml anti-DNP monoclonal IgE antibody (clone SPE-7, Sigma-Aldrich, St. Louis, Mo., USA). The cells were then washed twice to remove any unbound antibody and subsequently re-suspended in reaction buffer (135 mM NaCl, 5 mM KCl, 1.8 mM CaCl2), 1 mM MgCl2, 5.6 mM glucose, 0.05% BSA and 20 mM HEPES, pH 7.4). They were then pre-incubated with the test compounds (0.01-30 μM) or the solvent (0.05% DMSO) for 15 min before being stimulated with the specific antigen, DNP-BSA (30 ng/ml). After 30 min incubation at 37° C., the amount of LTC4 released into the supernatant (as index of 5-LO activity) was determined by ELISA as described below.
Assay of released leukotrienes/β-hexoseaminidase enzyme: Appropriately diluted supernatants were assayed for the released LTs (LTB4 and LTC4), by the enzyme immunoassay (EIA) method using assay kits supplied by R&D Systems (Minneapolis, Minn., USA) and following the manufacturer's instructions.

[3] = test system: degranulation of bone marrow-derived mouse mast cells; test: Inhibition of degranulation (β-hexoseaminidase release) in allergen/IgE-activated BMMC; type: cell-based; conditions: anti-DNP IgE sensitized, DNP-BSA 30 ng/ml, 30 min
Excerpt: as §1
as §2, with “They were then pre-incubated with the test compounds (0.01-30 μM) or the solvent (0.05% DMSO) for 15 min before being stimulated with the specific antigen, DNP-BSA (30 ng/ml).” left out
The concurrently-released granular enzyme, β-hexoseaminidase (as index of degranulation) was determined as described below.
The beta-hexoseaminidase released into the supernatant by the degranulating BMMCs was determined colorimetrically using p-nitrophenyl-N-acetyl-β-D-glucosaminide as substrate. […] The absorbance of the colored product (p-nitrophenol) was then read at 405 nm in a microplate reader. Results were expressed as percentage of the total cell content (determined in cells lysed with 0.1% triton-x-100).

[4] = test system: isolated human monocytes; test: In vitro toxicity testing (MTT viability); type: cell-based; conditions: concentrations up to 50 μM, 3 h or 24 h, n=3
Description: In Vitro Toxicity Testing: Adherent human monocytes, prepared as described above, were used. The cells were cultured with various concentrations of the test compounds or vehicle, or with 0.05% Triton-X as positive control for 3 h or 24 h. At the end of the culture, cell viability was determined using the MTT (3-(4,5 dimethylthiazol-2-yl)-2,5-diphenyltetrazolium bromide) assay method. Briefly, 15 μl of the MTT solution (5 mg/ml) was added to each well, and incubated at 37° C. for 4 h. After removing the supernatant, 200 μl of dimethylsulfoxide (DMSO) was added to dissolve the crystals. Absorbance at 570 nm was then measured in a microplate reader. Viability was expressed as percentage of the vehicle-treated cells.

[5] = test system: zymosan-induced peritonitis; test: Zymosan-induced peritoneal inflammation in mice; type: in vivo, mouse; conditions: 30 min before zymosan i.p., peritoneal exudate at 2 h
Excerpt: Inhibition of zymosan-induced peritoneal inflammation in mice: Female Balb/c mice, 6-8 weeks old, obtained from the Animal Resources Center of the Health Sciences Center, Kuwait University, were used. They were maintained under temperature-controlled conditions with an artificial 12-h light/dark cycle and allowed standard chow and water ad libitum. The study protocol was approved by the “Health Sciences Center Animal Welfare Committee” and complied with the “Guidelines for the Care and Use of Laboratory Animals” of the Health Sciences Centre, Kuwait University. The zymosan-induced peritonitis model-a recognized LT-mediated inflammatory reaction, described particularly in Hanke et al., 2013 ([…]., et al. (2013). Journal of medicinal chemistry, 56(22), 9031-9044) was used. […] After 30 min, all groups were injected intraperitonally with 0.2 ml of activated zymosan (2 mg/ml) except the control group that received 0.2 ml PBS. After 2 h, all animals were killed and the peritoneal exudate was collected by washing the cavity with 3 ml of heparinized (10 IU/ml) PBS.

SMILES	IC50 [1]	Inhibition of generation of LTC4 from IgE/allergen-activated mast cells (FIG. 2A) [2]	Inhibition of degranulation (release of granular β-hexoseaminidase) (FIG. 2B) [3]	Effect on viability of isolated human monocytes (MTT) [4]	Net Exudate Vol ([5]; 10 mg/kg s.c.)	Total Cell No ([5]; 10 mg/kg s.c.)	Total LTC4 ([5]; 10 mg/kg s.c.)	Net Exudate Vol ([5]; 30 mg/kg s.c.)	Total Cell No ([5]; 30 mg/kg s.c.)	Total LTC4 ([5]; 30 mg/kg s.c.)	melting point
CCCCCCC(=O)N(O)C[C@H]1CN(c2ccc(N3CCOCC3)c(F)c2)C(=O)O1 [PH-249, (R)—N-((3-(3-fluoro-4-morpholinophenyl)-2-oxooxazolidin-5-yl)methyl)-N-hydroxyheptanamide]	1.9 µM	equally effective in inhibiting the generation of LTC4	able to inhibit degranulation	no significant effect on cell viability	0.16 ± 0.08 mL	39.7 ± 6.6 ×10^6	107.2 ± 51.6 ng	0.06 ± 0.01 mL	17.8 ± 2.2 ×10^6	102.8 ± 20.9 ng	123 to 125 °C
CCCCCC(=O)N(O)C[C@H]1CN(c2ccc(N3CCOCC3)c(F)c2)C(=O)O1 [PH-247, (R)—N-((3-(3-fluoro-4-morpholinophenyl)-2-oxooxazolidin-5-yl)methyl)-N-hydroxyhexanamide]	3.4 µM	–	–	no significant effect on cell viability	–	–	–	–	–	–	118.5 to 120.5 °C
